For data set [1] the following is noted: humans; oral dose of 300 mg; cited from earlier work.
In data set [2] the test system is MDA.pFULG cells. Kind of data set: Homing assay: lung colonization 24 hours after injection of MDA.pFULG cells. The class given is in vivo, mice. To be noted: 10 administrations (twice a day for 5 days) before i.v. injection of cells; lungs 24 hours after injection. The text has this:
(§1) In FIG. 6A, there is shown the effect of CCR5 antagonist on breast cancer cell viability. […] Graph is from a representative experiment carried out by sextuplicate. No statistical differences were found (ANOVA) in 3 independent experiments. In FIG. 6B, there is shown CCR5 expression in MDA-MB-231 cells stably transfected with pcDNA3.1+/Zeo+ (MDA.Vector) or human CCR5 cloned into pCDNA3+Zeo+ (MDA.CCR5). […] Representative experiment from 2 carried out by sextuplicate. […] Thus, the reduction in tumor mass in the lungs is due to the inhibition of “homing” or spread of tumors to the lung. […] Cells expressing eGFP were counted in 3 random fields of 2 different histologic sections (separated 700 μm from each other) per mouse (n=5 mice per group). […]
(§2) MB-MDA-231 cells expressing Luc2-eGFP (called MDA.pFLUG for the rest of the article) were detached with a nonenzymatic cell dissociation buffer (4 mmol/L EDTA in Ca^2+ and Mg^2+-free PBS), resuspended in Dulbecco's PBS without Ca^2+ and Mg^2+ and immediately injected into the tail vein of 8-week-old, female nonobese diabetic/severe combined immunodeficient (NOD/SCID) mice (NCI, Bethesda Md.). […] Data are expressed as total photon flux and were analyzed using Living Image 3.0 software (Caliper Life Sciences). […] Cryosections (10 μm) were counterstained with 4′,6-diamidino-2-phenylindole analyzed by confocal microscopy. […]

Data set [3] has as its system SUM-159 breast cancer cells. Kind of data set: FBS-induced 3D invasion into collagen gels, SUM-159. The class given is cell-based, human. To be noted: SUM-159 cells; 100 nmol/L; 5% FBS as chemoattractant. The procedure:
(§3) In FIG. 4A, there is shown 3D reconstruction of FBS-induced invasion into collagen gels by Hs578T breast cancer cells in presence of CCR5 antagonists (100 nmol/L). In FIG. 3C there is shown 3D reconstruction of FBS-induced invasion into collagen gels by SUM-159 breast cancer cells in presence of CCR5 antagonists (100 nmol/L).
(§4) The 3-dimensional invasion assay was conducted as previously reported (12). Briefly, 100 μL of 1.67 mg/mL Rat Tail collagen type I (BD Biosciences) was pipetted into the top chamber of a 24-well 8-μm pore Transwell (Corning). The Transwell was incubated at 37° C. overnight to allow the collagen to solidify. A total of 30,000 cells were then seeded on the bottom of the Transwell membrane and allowed to attach. Serum-free growth medium was placed into the bottom chamber, whereas 15 ng/mL CCL5 or 5% FBS was used as a chemoattractant in the medium of the upper chamber. The cells were then chemoattracted across the filter through the collagen above for 3 days. Cells were fixed in 4% formaldehyde, permeabilized with 0.2% Triton-X in PBS, and then stained with 40 μg/mL propidium iodide (PI) for 2 hours. Fluorescence was analyzed by confocal z-sections (one section every 20 μm) at ×10 magnification from the bottom of the filter using a Zeiss LSM 510 Meta inverted confocal microscope at the Kimmel Cancer Center Bioimaging Facility. […]

Data set [4] deals with MDA-MB-231 cells (MDA.pFULG) established pulmonary metastasis. Kind of data set: Growth of established pulmonary metastasis (treatment started 10 days after cell injection). The class given is in vivo, NOD/SCID mice. To be noted: 8 mg/kg every 12 hours; treatment initiated 10 days after injection of cells.
From the text: as §1, §2

The conditions of data set [5]: mice; 16 mg/kg; cited from earlier work.
The target of data set [6] is CCR5 (Homo sapiens, UniProt P51681). Kind of data set: CCL5-induced calcium signaling (Fluo-4-AM intracellular calcium assay) in MDA-MB-231 cells. The class given is cell-based. The conditions noted are these: antagonist 100 nmol/L for 30 minutes before addition of CCL5. The procedure: Micrographs illustrate the axis (x-x′) of the pseudoline scan plot. Those axes were used to construct the adjacent intensity versus time plots. […] The data in FIGS. 3B and 3D are mean±SEM of 3 to 4 independent experiments. Statistical analysis was conducted using the Student t test.
Sequence of CCR5 (P51681 whole entry): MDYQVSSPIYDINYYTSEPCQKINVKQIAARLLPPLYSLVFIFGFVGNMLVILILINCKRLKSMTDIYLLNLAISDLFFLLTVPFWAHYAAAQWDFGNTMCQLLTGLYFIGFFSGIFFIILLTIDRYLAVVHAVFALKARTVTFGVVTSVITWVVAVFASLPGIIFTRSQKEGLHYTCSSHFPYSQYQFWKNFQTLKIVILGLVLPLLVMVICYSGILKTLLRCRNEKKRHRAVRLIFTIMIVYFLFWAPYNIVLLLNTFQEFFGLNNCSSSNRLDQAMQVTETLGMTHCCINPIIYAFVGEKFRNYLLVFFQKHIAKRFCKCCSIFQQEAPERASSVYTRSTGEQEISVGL
Calcium responses induced either by CCL5 or FBS in human cancer cell lines were monitored under fluorescence confocal microscope as previously reported (28). Briefly, breast cancer cells were seeded in 4-well labtek chambers (Nunc) at 10^4 cells/cm^2 and incubated for 1 day. After 12-hour starvation, cells were labeled by incubating them with […] Fluo-4-AM (Molecular Probes) in HBSS for 30 minutes, washed twice, and incubated for additional 30 minutes before imaging under the microscope. Time-lapse images were collected using a Zeiss LSM 510 Meta inverted confocal microscope with the incubator at 37° C. Relative intracellular Ca^2+ concentration was determined by the changes in fluorescent intensity (FI) of Fluo-4-AM upon the addition of CCL5 (60 ng/mL) or FBS (5%) and was calculated as (FIt−FI0)/FI0.
The importance of CCR5 in HIV infection led to the development of different drugs that target this receptor.

The subject of data set [7] is MDA-MB-231 cells (MDA.pFULG) pulmonary metastases. Kind of data set: Experimental lung metastasis assay (tail vein injection of MDA.pFULG cells, BLI, histology). The class given is in vivo, NOD/SCID mice. The procedure:
In FIG. 5A, MDA-MB-231 cells transduced with Luc2-eGFP fusion protein were injected into the tail vein of NOD/SCID mice and the in vivo bioluminescent signal was quantified weekly. […] Tumor area was quantified with the Nikon Elements BR 3.0 software analyzing at low magnification (×40) 2 random fields of 2 different histologic sections (separated 600 μm from each other) per mouse. Statistical analysis was conducted using the Student t test with Welch correction for heterogeneous variances (n=33 and 12 for control and treated groups, respectively).
MB-MDA-231 cells expressing Luc2-eGFP (called MDA.pFLUG for the rest of the article) were detached with a nonenzymatic cell dissociation buffer (4 mmol/L EDTA in Ca^2+ and Mg^2+-free PBS), resuspended in Dulbecco's PBS without Ca^2+ and Mg^2+ and immediately injected into the tail vein of 8-week-old, female nonobese diabetic/severe combined immunodeficient (NOD/SCID) mice (NCI, Bethesda Md.). Each mouse received 10^6 cells. […] Treatment was started immediately after injection or 10 days later for the experiments analyzing the proliferation of established metastasis. For in vivo bioluminescence imaging (BLI), mice were given an intraperitoneal (i.p.) injection with 200 μL of d-luciferin (30 mg/mL). Mice were anesthetized with isoflurane (2% in 1 L/min oxygen), and bioluminescence images were acquired 10 to 15 minutes after d-luciferin injection using the IVIS XR system (Caliper Life Sciences). Acquisition times ranged from 10 seconds (for later time points) to 5 minutes (for early time points). Data are expressed as total photon flux and were analyzed using Living Image 3.0 software (Caliper Life Sciences). For ex vivo BLI, d-luciferin was diluted in PBS to a final concentration of 300 μg/mL and used to soak freshly isolated lungs for 2 to 3 minutes before imaging. Some lungs were stained with India ink, as previously reported (33), or processed and stained with hematoxylin and eosin to corroborate the presence of pulmonary tumors. For homing assays, mice were euthanized 24 hours after the intravenous injection of MDA.pFULG cells. Lungs were perfused with PBS, fixed with freshly prepared formaldehyde (4% in PBS), and frozen in optimum cutting temperature (Sakura Finetek). Cryosections (10 μm) were counterstained with 4′,6-diamidino-2-phenylindole analyzed by confocal microscopy. Animal experiments were approved by the Thomas Jefferson University's Institutional Animal Care and Use Committee.
MDA-MB-231 cells transduced within the Luc2-eGFP lentiviral vector (MDA.pFULG cells) were used in an experimental metastasis model. The Luc2 gene is a codon-optimized version of Luc and cells expressing this reporter were 10 to 100 times brighter than the unmodified Luc gene (30). […]

The test system of data set [8] is MDA-MB-231 cells. Nature of the data set: MTT cell viability assay. The conditions noted are these: increasing concentrations, 48 hours. The class given is cell-based, human. The text has this: In FIG. 6A, there is shown the effect of CCR5 antagonist on breast cancer cell viability. […] Graph is from a representative experiment carried out by sextuplicate. No statistical differences were found (ANOVA) in 3 independent experiments. In FIG. 6B, there is shown CCR5 expression in MDA-MB-231 cells stably transfected with pcDNA3.1+/Zeo+ (MDA.Vector) or human CCR5 cloned into pCDNA3+Zeo+ (MDA.CCR5). […] Representative experiment from 2 carried out by sextuplicate. […] Thus, the reduction in tumor mass in the lungs is due to the inhibition of “homing” or spread of tumors to the lung. […] Cells expressing eGFP were counted in 3 random fields of 2 different histologic sections (separated 700 μm from each other) per mouse (n=5 mice per group). Statistical analysis was conducted using Student t test. Bar in micrographs, 100 μm.
The MTT assay is a colorimetric assay for measuring the activity of cellular enzymes that reduce the tetrazolium dye, 3-(4,5-Dimethylthiazol-2-yl)-2,5-diphenyltetrazolium bromide, a yellow tetrazole (MTT), to its insoluble formazan, giving a purple color. […]
The effects of CCR5 antagonists on cell viability and proliferation rate were estimated using the soluble tetrazolium salt MTT assay (29). […] Then, the reduced (insoluble and colored) formazan was dissolved in DMSO and measured spectrophotometrically at 570 nm. […]

The test system of data set [9] is Hs578T breast cancer cells. Kind of data set: FBS-induced 3D invasion into collagen gels, Hs578T. The conditions noted are these: 100 nmol/L, 5% FBS as chemoattractant. The class given is cell-based, human. The procedure:
as §3, §4

[10] abbreviates: 8 mg/kg twice daily, oral gavage.

Molecules are shown by their SMILES. Where two headings read alike, the source gives them in different places.

Regarding `Cc1nnc(C(C)C)n1[C@@H]1C[C@H]2CC[C@@H](C1)N2CC[C@H](NC(=O)C1CCC(F)(F)CC1)c1ccccc1` [maraviroc, 4,4-difluoro-N-[(1S)-3-[(1R,5S)-3-(3-methyl-5-propan-2-yl-1,2,4-triazol-4-yl)-8-azabicyclo[3.2.1]octan-8-yl]-1-phenylpropyl]cyclohexane-1-carboxamide], the Cmax is 1.2 µM in [1] and 1.04 µM in data set [5]. For the same compound, the “reduction of the number of eGFP cells in the lungs” value in data set [2] was determined as 40%. The “FBS-induced breast cancer cell invasion” value in data set [3] and in data set [9] was “inhibited FBS-induced breast cancer cell invasion” throughout. The “tumor growth of established pulmonary metastasis (in vivo BLI)” value in data set [4] is reported as “did not modify tumor growth”. Also, the “inhibition of CCL5-induced calcium responses” value in data set [6] was 65%. Besides, the “fraction of treated mice with detectable metastatic tumors” value in data set [7] (setting [10]) is 50%. In data set [7] (setting [10]), the “reduction of mean size of metastatic tumors (lung histology)” value came to 65%. The “number and size of pulmonary metastases compared with vehicle-treated mice” value in [7] (8 mg/kg twice daily, oral gavage, weekly BLI for 5 weeks) is “significant reduction”. For the same compound, the pulmonary tumor burden entry in data set [7] (16 mg/kg/d divided into 2 doses) is listed as “significantly reduced”. Also, the “cell viability (MTT reduction)” value in data set [8] is given as “did not affect the MTT reduction”.
Turning to `COC[C@@H](c1ccc(C(F)(F)F)cc1)N1CCN(C2(C)CCN(C(=O)c3c(C)ncnc3C)CC2)C[C@@H]1C` [vicriviroc, (4,6-dimethylpyrimidin-5-yl)-[4-[(3S)-4-[(1R)-2-methoxy-1-[4-(trifluoromethyl)phenyl]ethyl]-3-methylpiperazin-1-yl]-4-methylpiperidin-1-yl]methanone], the “FBS-induced breast cancer cell invasion” value in [3] and in data set [9] was “inhibited FBS-induced breast cancer cell invasion” throughout. Moreover, the “inhibition of CCL5-induced calcium responses” value in data set [6] is given as 90%. Further, in [8], the “cell viability (MTT reduction)” value is on record as “did not affect the MTT reduction”.

(Values after patent US11633397B2, “Use of modulators of CCR5 in the treatment of cancer and cancer metastasis” (priority 2012, dated 2023).)
